Assay results published in patent US20100137258A1, “THIOPHOSPHI(O)NIC ACID DERIVATIVES AND THEIR THERAPEUTICAL APPLICATIONS” (priority 2007, published 2010).
Where two headings read alike, the source gives them in different places.

Key:
[1] = biological target: T1, mGlu6 (Rattus norvegicus, UniProt P35349); assay: Inositol phosphate production in transfected HEK293 cells, mGlu6; assay type: cell-based
T1 construct: expressed in transfected cells; host or cells: HEK293 (transient, electroporation)
T1 sequence (P35349 24-871): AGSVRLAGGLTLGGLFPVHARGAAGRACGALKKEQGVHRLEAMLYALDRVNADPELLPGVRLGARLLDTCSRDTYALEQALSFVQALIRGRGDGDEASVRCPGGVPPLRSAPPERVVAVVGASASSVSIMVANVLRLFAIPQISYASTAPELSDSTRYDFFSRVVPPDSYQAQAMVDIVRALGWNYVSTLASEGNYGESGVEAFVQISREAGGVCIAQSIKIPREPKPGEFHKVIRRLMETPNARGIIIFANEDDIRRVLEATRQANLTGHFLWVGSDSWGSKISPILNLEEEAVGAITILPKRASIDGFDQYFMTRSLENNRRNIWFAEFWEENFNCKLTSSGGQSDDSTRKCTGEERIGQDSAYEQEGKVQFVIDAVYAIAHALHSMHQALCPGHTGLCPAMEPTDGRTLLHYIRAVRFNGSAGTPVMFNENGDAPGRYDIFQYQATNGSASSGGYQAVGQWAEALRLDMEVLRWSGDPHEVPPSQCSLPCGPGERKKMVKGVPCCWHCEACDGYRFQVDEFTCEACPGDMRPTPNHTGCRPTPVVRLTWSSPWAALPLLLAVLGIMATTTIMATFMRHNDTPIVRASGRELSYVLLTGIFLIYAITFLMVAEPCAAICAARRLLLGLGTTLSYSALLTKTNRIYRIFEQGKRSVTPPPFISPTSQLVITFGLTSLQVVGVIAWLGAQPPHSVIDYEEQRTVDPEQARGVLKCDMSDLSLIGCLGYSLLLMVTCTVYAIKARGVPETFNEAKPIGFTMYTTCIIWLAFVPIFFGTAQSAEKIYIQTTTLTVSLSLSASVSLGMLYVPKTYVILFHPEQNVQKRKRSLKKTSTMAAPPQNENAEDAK
Text: (§1) These receptors were transiently expressed in HEK-293 cells as previously described. Since group III mGlu receptors are not naturally coupled to phospholipase-C but rather inhibit adenylyl cyclase, receptors were co-transfected with a chimeric G-protein alpha subunit which is recognized by these receptors but effectively activates the phospholipase-C pathway. Thus, the functional assay consisted in measuring the total inositol phosphate production resulting from receptor activation (ref. 10, 11).
(§2) Cell culture and transfection. Pharmacological experiments were carried out using HEK293 cells. Cells were cultured in Dulbecco's modified Eagle's medium supplemented with 10% foetal calf serum (FCS) and antibiotics (Penicillin and Streptomycin, 100 U/mL final).
(§3) Cells were transiently transfected with rat clones of group-III mGlu receptors (mGlu4, mGlu6, mGlu7 and mGlu8) by electroporation as described elsewhere (ref. 6) and plated in 96-well microplates. The high affinity glutamate transporter EAAC1 was also co-transfected with the receptor in order to avoid any influence of glutamate released by the cells in the assay medium. […] Receptor activity was then determined by measurement of the IP production. […]

[2] = system: mGlu1/5 receptors; assay: Effect at mGlu1/5 receptors; assay type: cell-based
[3] = biological target: T2, mGlu7 (Rattus norvegicus, UniProt P35400); assay: Inositol phosphate production in transfected HEK293 cells, mGlu7; assay type: cell-based
T2 construct: expressed in transfected cells; host or cells: HEK293 (transient, electroporation)
T2 sequence (P35400 35-915): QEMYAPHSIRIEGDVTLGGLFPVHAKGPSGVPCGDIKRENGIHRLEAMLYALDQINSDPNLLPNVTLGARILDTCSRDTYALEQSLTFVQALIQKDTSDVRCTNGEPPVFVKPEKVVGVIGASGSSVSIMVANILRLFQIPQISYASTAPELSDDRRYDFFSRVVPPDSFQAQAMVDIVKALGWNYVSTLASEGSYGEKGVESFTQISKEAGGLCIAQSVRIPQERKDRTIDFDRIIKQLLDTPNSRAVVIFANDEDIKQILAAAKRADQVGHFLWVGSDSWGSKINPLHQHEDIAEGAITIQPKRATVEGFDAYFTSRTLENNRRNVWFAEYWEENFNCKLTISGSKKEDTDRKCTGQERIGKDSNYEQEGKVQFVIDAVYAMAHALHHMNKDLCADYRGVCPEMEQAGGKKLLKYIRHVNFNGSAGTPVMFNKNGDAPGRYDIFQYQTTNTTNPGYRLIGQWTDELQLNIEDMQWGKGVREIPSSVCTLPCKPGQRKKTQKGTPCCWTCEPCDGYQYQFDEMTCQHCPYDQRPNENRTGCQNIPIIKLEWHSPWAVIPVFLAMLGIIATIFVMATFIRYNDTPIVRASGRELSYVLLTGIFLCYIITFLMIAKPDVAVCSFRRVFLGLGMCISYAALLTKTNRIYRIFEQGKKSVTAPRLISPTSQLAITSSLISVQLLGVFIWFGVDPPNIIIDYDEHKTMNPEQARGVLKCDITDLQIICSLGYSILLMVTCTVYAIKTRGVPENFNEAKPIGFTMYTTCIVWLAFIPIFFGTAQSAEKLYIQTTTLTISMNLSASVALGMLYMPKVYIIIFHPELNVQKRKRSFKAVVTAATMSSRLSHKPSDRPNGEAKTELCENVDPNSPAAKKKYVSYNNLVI
Text: as §1, §2, §3

[4] = biological target: mGlu4R (Homo sapiens, UniProt Q14833); conditions: read-out: EC50 as mGlu4R agonist; background statement; cited from earlier work
[5] = 31P NMR chemical shift versus pH, 27° C.
Description: In order to compare them, the pKa values of these amino acids were evaluated. […] Indicated pKa3 values were calculated by non-linear regression analysis using GraphPad Prism program. In addition, the ^31P NMR chemical shifts of 1 and 4 are sensitive to the ionization state, thus titration curves may be obtained from their pH dependence (ref. 7-9) (FIG. 1B). […] The pKa1 and pKa2 values are too close to be determined from the titration curves, however pKa3 and pKa4 are easily measured. […]
Each ^31P NMR spectrum was acquired at 27° C. with external H3PO4 (95%) reference at 0 ppm (sealed capillary). […] A total of 27 spectra (1) or 23 spectra (4) were recorded over a pH range of 0.50-12.50 (1) or 0.51-12.56 (4). The P NMR chemical shifts of the dianionic and monoanionic forms of the (thio)phosphonate groups were plotted against measured pH. All pKa values were calculated by non-linear regression analysis using the GraphPad Prism program (GraphPad Software Inc., San Diego Calif.) and the equation pH=pKa−log[(δa−δ)/(δ−δb)] where δ is the ^31P NMR chemical shift at varying pH, δa and δb the ^31P NMR chemical shifts with titrating group in fully acidic or basic form respectively.

[6] = system: group I and II mGlu receptors; assay: Selectivity versus group I and II mGlu receptors; assay type: cell-based
[7] = biological target: T3, mGlu4 (Rattus norvegicus, UniProt P31423); assay type: cell-based
T3 construct: expressed in transfected cells; host or cells: HEK293 (transient, electroporation)
T3 sequence (P31423 33-912): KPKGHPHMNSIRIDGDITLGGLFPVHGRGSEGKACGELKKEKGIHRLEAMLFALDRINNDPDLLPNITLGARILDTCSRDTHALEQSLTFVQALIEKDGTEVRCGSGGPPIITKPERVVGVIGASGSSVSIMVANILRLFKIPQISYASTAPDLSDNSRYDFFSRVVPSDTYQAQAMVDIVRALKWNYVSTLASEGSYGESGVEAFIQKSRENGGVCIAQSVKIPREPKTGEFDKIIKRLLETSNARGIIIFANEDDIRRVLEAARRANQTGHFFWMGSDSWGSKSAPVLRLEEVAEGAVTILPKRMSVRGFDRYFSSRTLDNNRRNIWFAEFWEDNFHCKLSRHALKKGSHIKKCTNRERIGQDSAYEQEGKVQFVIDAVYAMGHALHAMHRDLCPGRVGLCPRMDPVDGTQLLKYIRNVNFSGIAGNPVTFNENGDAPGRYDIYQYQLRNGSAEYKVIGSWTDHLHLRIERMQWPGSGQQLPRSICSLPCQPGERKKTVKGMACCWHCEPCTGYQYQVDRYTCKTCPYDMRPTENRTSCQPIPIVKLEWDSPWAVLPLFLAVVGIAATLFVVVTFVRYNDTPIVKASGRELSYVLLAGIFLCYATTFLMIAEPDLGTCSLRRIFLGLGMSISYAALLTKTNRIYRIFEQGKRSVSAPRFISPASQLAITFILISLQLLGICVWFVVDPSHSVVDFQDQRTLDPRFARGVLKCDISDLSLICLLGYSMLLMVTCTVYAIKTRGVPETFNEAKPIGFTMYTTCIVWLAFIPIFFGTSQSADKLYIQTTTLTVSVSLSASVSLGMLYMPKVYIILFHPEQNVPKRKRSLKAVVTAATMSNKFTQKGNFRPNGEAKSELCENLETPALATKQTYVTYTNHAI
Text: as §1, §2
(§4) Cells were transiently transfected with rat clones of group-III mGlu receptors (mGlu4, mGlu6, mGlu7 and mGlu8) by electroporation as described elsewhere (ref. 6) and plated in 96-well microplates. The high affinity glutamate transporter EAAC1 was also co-transfected with the receptor in order to avoid any influence of glutamate released by the cells in the assay medium. Since group-III mGluRs activates naturally Gi/o-proteins which modulate the adenylyl-cyclase pathway, these receptors were co-transfected with a chimeric G-protein which is recognized by these receptors but couples to the phospholipase-C pathway, thus leading to inositol phosphate (IP) production following receptor activation (ref. 7). Receptor activity was then determined by measurement of the IP production.
(§5) Functional assay. Inositol phosphate determination experiments in 96-well microplates were performed as already described (ref. 15). Briefly, 6 h following transfection, cell medium was removed and replaced by fresh medium devoid of glutamate, not complemented with FCS, and that contained ^3H-myoinositol. Cells were incubated overnight in this medium. The following day, cells were rinsed and ambient glutamate degraded by incubation in presence of GPT. Cells were stimulated by agonist for 30 min then the medium was removed and cells incubated for 1 h with cold 0.1 M formic acid which induced cell lysis. The ^3H-IP produced following receptor stimulation were recovered by ion exchange chromatography using a Dowex resin (Biorad). […] All points are realized in triplicate.

[8] = biological target: T4, mGlu8 (Rattus norvegicus, UniProt P70579); assay type: cell-based
T4 construct: expressed in transfected cells; host or cells: HEK293 (transient, electroporation)
T4 sequence (P70579 34-908): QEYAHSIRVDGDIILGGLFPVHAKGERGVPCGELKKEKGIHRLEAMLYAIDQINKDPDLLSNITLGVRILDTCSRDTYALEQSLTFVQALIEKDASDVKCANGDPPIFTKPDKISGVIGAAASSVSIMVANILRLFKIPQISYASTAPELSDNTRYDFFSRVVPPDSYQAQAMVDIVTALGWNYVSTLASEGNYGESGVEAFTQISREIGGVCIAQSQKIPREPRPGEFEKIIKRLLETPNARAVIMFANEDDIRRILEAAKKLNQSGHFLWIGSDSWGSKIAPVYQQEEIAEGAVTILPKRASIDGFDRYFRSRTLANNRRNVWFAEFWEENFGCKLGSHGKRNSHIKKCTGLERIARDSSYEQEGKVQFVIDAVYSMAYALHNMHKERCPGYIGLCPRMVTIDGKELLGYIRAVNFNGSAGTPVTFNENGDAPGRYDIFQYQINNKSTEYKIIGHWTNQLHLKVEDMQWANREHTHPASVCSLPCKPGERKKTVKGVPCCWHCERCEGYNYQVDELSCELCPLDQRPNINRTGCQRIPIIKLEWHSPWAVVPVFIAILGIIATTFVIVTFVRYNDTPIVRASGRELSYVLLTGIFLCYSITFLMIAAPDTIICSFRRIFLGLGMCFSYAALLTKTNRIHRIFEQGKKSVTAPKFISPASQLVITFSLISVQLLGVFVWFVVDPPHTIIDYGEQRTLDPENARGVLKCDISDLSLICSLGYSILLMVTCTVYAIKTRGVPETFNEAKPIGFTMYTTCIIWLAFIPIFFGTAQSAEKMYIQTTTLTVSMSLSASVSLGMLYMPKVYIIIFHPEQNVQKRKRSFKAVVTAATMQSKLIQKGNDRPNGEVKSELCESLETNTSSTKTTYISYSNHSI
Text: as §1, §2, §4, §5

[9] = biological target: mGlu2 receptor (Homo sapiens, UniProt Q14416); conditions: described in the literature; cited from earlier work
mGlu2 receptor, sequence (Q14416 19-872): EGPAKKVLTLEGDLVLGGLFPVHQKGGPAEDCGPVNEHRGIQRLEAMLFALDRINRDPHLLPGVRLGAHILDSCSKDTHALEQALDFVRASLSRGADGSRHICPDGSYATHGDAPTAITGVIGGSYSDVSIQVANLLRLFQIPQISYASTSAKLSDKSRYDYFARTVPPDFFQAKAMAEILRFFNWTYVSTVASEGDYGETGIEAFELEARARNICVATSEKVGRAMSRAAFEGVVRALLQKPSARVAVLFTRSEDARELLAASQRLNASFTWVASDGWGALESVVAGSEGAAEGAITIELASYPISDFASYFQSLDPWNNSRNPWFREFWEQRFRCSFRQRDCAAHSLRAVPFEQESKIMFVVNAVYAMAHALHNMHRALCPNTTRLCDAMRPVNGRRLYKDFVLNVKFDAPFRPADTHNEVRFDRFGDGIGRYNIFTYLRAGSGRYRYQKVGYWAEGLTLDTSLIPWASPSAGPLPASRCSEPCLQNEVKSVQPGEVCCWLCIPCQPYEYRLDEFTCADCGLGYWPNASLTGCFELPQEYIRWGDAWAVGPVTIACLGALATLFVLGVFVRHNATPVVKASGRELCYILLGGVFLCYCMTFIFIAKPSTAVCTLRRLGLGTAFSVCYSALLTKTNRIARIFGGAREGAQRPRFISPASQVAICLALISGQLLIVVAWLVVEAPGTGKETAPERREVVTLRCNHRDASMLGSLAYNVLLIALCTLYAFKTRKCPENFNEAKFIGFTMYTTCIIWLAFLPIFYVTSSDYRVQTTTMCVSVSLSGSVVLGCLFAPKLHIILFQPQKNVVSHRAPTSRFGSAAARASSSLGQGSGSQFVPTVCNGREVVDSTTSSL

[10] = system: group III mGlu receptors; conditions: cited from earlier work
[11] = system: group III mGlu receptors; assay: Agonist activity across all group III mGlu receptor subtypes (summary); assay type: cell-based, rat
Text: as §1, §4
Functional assay. […]

[12] = agonist activity, IP production, HEK-293, mean ± SEM (n)

| SMILES | EC50 [1, 12] [µM] | effect at mGlu1/5 receptors [2] | EC50 [3, 12] [µM] | EC50 [4] [µM] | experimental pKa3 ([5]; second acidity of (thio)phosphonate) | experimental pKa4 ([5]; α-ammonium group) | agonist or antagonist activity on group I and II mGlu receptors ([6]; at 100 μM) | EC50 [7, 12] [µM] | EC50 [8, 12] [µM] | mGlu2 receptor antagonist activity [9] | activity compared to glutamate at group III mGlu receptors [10] | EC50 [1] [µM] | EC50 [3] [µM] | agonist or antagonist activity on group I and II mGlu receptors [6] | EC50 [7] [µM] | EC50 [8] [µM] | selectivity among group III mGlu receptor subtypes [11] | activity relative to L-AP4 (1) ([11]; on all subtypes, Student's paired T test P<0.05) |
| --- | --- | --- | --- | --- | --- | --- | --- | --- | --- | --- | --- | --- | --- | --- | --- | --- | --- | --- |
| N[C@@H](CCP(=O)(O)O)C(=O)O [L-AP4, L(+)-2-Amino-4-phosphonobutyric Acid] | 2.08 ± 0.38 | no effect | 440 ± 120 | 0.32 | 6.88 | 9.90 | no agonist or antagonist activity | 0.08 ± 0.017 | 0.128 ± 0.019 | modest mGlu2 receptor antagonist | – | – | – | – | – | – | – | – |
| N[C@@H](CCS(=O)(=O)O)C(=O)O [L-homocysteic acid] | – | – | – | – | – | – | – | – | – | – | no enhanced activity compared to glutamate | – | – | – | – | – | – | – |
| N[C@@H](CCP(O)(O)=S)C(=O)O [L-thioAP4, L(+)-2-Amino-4-thiophosphonobutyric acid] | – | no effect | – | – | – | – | – | – | – | – | – | 0.73 | 197 | no agonist or antagonist activity | 0.039 | 0.054 | not subtype selective | about two fold |
